Here are results for one compound from ChEMBL document CHEMBL5625247, “Tetrahydro-β-carboline derivatives as potent histone deacetylase 6 inhibitors with broad-spectrum antiproliferative activity” (Eur J Med Chem, 2023).

One series addresses Histone deacetylase 11 (Homo sapiens, UniProt Q96DB2). The experiment in a line: Inhibition of HDAC11 (unknown origin) expressed in baculovirus infected in Sf9 cells using RHKKAc as substrate preincubated for 5 to 10 mins followed by substrate addition measured after 2 hrs by fluorescence based assay.
The target of series [1] is T1, Protein deacetylase HDAC6 (Homo sapiens, UniProt Q9UBN7).
T1 sequence (Q9UBN7 whole entry): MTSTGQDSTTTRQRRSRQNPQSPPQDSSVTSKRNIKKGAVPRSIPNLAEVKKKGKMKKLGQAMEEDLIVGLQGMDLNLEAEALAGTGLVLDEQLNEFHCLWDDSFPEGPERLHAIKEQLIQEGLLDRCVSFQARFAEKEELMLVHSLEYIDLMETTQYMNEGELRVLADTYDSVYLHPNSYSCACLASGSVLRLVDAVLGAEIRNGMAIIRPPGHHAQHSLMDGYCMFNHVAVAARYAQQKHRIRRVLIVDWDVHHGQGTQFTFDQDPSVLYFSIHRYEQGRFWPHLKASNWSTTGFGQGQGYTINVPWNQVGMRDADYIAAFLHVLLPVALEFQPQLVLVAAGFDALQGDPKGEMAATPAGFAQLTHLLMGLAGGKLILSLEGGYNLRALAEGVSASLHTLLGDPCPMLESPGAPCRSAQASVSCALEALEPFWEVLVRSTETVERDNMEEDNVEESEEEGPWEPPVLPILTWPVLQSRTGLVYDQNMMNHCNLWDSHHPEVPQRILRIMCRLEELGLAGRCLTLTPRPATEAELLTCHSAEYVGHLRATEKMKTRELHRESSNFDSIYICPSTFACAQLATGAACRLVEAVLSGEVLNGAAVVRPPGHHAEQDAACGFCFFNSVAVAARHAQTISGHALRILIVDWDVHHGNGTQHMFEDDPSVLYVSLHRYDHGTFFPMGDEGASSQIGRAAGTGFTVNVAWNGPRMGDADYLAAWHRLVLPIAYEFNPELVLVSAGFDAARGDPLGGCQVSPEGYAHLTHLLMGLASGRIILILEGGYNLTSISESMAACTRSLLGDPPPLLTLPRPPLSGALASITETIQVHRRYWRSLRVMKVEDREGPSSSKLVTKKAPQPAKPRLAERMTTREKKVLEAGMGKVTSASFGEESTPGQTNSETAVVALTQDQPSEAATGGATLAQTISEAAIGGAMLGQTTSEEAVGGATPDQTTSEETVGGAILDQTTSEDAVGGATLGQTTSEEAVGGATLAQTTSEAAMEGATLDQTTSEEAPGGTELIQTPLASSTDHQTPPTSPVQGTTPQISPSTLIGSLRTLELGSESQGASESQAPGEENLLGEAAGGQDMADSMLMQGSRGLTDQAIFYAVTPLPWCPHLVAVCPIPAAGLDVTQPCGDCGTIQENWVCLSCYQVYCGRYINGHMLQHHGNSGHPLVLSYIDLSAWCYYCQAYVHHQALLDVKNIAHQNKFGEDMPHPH
The experiment in a line: Inhibition of HDAC6 (unknown origin) expressed in baculovirus infected in Sf9 cells using RHKKAc as substrate preincubated for 5 to 10 mins followed by substrate addition measured after 2 hrs by fluorescence based assay.

Series [2] in a line: Half life in Sprague-Dawley rat at 0.2 mg/kg, iv by LC-MS/MS analysis. The series is classed as ADME, organism-based. The following applies: in vivo.
For another series, the target named is Histone deacetylase 8 (Homo sapiens, UniProt Q9BY41). The experiment in a line: Inhibition of HDAC8 (unknown origin) expressed in baculovirus infected in Sf9 cells using RHKKAc as substrate preincubated for 5 to 10 mins followed by substrate addition measured after 2 hrs by fluorescence based assay.
The next series addresses Histone deacetylase 5 (Homo sapiens, UniProt Q9UQL6). The experiment in a line: Inhibition of HDAC5 (unknown origin) expressed in baculovirus infected in Sf9 cells using RHKKAc as substrate preincubated for 5 to 10 mins followed by substrate addition measured after 2 hrs by fluorescence based assay.
The target of series [3] is Class 1 histone deacetylase (Homo sapiens) (UniProt Q13547+O15379+Q92769+Q9BY41). The experiment in a line: Inhibition of class 1 HDAC in human RPMI-8226 cells assessed as increase in alpha-tubulin acetylation at 1 to 10 uM incubated for 24 hrs by Western blot analysis. The series is classed as cell-based. As to conditions: dose 1-10 µM.
Series [4] in a line: AUC (0 to last) in Sprague-Dawley rat at 3 mg/kg, po by LC-MS/MS analysis. The series is classed as ADME, organism-based. The following applies: in vivo.
The target of another series is Histone deacetylase 4 (Homo sapiens, UniProt P56524). Kind of series: Inhibition of HDAC4 (unknown origin) expressed in baculovirus infected in Sf9 cells using RHKKAc as substrate preincubated for 5 to 10 mins followed by substrate addition measured after 2 hrs by fluorescence based assay.
Series [5] in a line: AUC (0 to infinity) in Sprague-Dawley rat at 3 mg/kg, po by LC-MS/MS analysis. The series is classed as ADME, organism-based. The following applies: in vivo.
Series [6] is described as follows: AUC (0 to last) in Sprague-Dawley rat at 0.2 mg/kg, iv by LC-MS/MS analysis. In kind it is ADME, organism-based. As to conditions: in vivo.
Series [7] concerns the target Polyamine deacetylase HDAC10 (Homo sapiens, UniProt Q969S8). The experiment in a line: Inhibition of HDAC10 (unknown origin) TR-FRET assay. Also on record: species or system Sf9. In general terms: Time-resolved FRET reads energy transfer from a long-lived donor to a nearby acceptor.
The nature of series [8]: Half life in Sprague-Dawley rat at 3 mg/kg, po by LC-MS/MS analysis. In kind it is ADME, organism-based. As to conditions: in vivo.
Series [9] is described as follows: Volume of distribution at steady state in Sprague-Dawley rat at 0.2 mg/kg, iv by LC-MS/MS analysis. The series is classed as ADME, organism-based. The following applies: in vivo, read-out: Vdss.
A short description of series [10]: AUC (0 to infinity) in Sprague-Dawley rat at 0.2 mg/kg, iv by LC-MS/MS analysis. The series is classed as ADME, organism-based. As to conditions: in vivo.
For another series, the target named is Histone deacetylase 2 (Homo sapiens, UniProt Q92769). In kind it is cell-based, Sf9.
The nature of series [11]: Cmax in Sprague-Dawley rat at 3 mg/kg, po by LC-MS/MS analysis. In kind it is ADME, organism-based. The following applies: in vivo.

pIC50: −log10 of the molar value. Activity calls are given as the source filed them.

Chain of Histone deacetylase 11 (Q96DB2 whole entry): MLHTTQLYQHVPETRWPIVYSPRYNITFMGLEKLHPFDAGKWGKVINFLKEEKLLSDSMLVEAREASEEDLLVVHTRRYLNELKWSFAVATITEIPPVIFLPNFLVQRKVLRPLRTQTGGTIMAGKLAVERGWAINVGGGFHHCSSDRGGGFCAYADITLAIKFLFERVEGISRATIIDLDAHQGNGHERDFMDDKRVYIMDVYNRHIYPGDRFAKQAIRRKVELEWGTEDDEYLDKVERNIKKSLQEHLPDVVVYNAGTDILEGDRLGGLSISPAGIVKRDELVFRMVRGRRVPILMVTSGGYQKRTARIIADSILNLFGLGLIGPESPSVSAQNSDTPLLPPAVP
Chain of Polyamine deacetylase HDAC10 (Q969S8 whole entry): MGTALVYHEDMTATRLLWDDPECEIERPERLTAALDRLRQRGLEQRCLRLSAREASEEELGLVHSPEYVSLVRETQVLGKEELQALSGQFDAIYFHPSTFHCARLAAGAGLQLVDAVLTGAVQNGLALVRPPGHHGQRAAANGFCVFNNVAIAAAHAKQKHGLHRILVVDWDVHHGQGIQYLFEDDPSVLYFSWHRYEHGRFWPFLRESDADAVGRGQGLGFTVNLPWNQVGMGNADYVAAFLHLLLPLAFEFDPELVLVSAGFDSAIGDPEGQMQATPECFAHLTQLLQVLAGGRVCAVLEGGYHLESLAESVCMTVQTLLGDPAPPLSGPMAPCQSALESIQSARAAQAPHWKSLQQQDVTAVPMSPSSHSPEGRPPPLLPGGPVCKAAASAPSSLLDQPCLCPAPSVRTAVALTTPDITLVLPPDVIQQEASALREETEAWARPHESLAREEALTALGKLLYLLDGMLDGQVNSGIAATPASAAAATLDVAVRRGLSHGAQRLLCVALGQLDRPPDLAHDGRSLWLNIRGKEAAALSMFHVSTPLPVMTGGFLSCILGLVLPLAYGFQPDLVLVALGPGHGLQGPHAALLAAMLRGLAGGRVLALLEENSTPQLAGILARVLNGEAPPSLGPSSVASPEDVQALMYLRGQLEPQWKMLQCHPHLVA
Chain of Class 1 histone deacetylase (Homo sapiens) (O15379 whole entry, looked up): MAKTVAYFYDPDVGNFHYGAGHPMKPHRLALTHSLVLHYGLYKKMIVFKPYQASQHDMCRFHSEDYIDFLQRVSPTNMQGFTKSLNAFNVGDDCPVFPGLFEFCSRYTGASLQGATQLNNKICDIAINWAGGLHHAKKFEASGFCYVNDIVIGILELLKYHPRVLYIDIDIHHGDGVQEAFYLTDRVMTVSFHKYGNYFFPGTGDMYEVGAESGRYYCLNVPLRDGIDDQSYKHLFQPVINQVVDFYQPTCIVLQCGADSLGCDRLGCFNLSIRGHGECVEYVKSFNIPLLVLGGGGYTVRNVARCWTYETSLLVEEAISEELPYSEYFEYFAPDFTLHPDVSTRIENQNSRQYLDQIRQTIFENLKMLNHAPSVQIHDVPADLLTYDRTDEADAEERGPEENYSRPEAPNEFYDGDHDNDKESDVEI
Chain of Class 1 histone deacetylase (Homo sapiens) (Q13547 whole entry, looked up): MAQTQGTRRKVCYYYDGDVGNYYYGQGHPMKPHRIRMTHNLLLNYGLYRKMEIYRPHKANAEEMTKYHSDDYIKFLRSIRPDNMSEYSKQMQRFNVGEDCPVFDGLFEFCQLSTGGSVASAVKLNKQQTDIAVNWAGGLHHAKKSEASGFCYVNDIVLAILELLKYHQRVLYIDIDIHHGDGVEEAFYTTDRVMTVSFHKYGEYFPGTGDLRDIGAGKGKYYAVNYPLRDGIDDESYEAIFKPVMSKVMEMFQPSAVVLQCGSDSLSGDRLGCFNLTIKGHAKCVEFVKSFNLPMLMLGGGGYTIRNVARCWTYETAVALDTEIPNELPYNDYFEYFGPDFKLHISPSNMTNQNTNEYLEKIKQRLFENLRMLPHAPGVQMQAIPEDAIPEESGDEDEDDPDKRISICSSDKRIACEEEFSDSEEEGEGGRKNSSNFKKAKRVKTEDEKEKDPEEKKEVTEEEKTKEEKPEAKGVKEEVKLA
Chain of Class 1 histone deacetylase (Homo sapiens) (Q92769 whole entry, looked up): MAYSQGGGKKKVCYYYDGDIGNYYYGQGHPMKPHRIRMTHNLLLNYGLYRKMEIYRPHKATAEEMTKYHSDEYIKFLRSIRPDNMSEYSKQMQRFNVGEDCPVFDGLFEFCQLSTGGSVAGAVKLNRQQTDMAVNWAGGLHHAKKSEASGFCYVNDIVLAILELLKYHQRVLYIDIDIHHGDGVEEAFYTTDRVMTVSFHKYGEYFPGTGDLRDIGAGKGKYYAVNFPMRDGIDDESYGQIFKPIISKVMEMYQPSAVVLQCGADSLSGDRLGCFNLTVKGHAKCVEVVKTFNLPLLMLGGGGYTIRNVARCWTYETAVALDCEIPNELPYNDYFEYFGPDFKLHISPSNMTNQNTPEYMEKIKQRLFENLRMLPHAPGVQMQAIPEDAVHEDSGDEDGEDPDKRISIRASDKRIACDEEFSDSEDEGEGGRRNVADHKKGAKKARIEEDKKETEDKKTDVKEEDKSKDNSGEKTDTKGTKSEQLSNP
Chain of Class 1 histone deacetylase (Homo sapiens) (Q9BY41 whole entry, looked up): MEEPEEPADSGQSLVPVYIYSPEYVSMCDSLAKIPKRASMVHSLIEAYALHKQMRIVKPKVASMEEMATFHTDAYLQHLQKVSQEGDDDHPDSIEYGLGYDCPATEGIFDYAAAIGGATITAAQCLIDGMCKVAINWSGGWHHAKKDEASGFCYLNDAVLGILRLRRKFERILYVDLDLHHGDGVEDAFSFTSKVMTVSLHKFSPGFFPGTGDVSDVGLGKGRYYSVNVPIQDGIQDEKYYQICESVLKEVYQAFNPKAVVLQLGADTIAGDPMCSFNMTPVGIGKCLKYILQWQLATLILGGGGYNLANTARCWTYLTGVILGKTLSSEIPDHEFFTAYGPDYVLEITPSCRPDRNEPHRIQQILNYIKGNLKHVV
Chain of Histone deacetylase 5 (Q9UQL6 whole entry): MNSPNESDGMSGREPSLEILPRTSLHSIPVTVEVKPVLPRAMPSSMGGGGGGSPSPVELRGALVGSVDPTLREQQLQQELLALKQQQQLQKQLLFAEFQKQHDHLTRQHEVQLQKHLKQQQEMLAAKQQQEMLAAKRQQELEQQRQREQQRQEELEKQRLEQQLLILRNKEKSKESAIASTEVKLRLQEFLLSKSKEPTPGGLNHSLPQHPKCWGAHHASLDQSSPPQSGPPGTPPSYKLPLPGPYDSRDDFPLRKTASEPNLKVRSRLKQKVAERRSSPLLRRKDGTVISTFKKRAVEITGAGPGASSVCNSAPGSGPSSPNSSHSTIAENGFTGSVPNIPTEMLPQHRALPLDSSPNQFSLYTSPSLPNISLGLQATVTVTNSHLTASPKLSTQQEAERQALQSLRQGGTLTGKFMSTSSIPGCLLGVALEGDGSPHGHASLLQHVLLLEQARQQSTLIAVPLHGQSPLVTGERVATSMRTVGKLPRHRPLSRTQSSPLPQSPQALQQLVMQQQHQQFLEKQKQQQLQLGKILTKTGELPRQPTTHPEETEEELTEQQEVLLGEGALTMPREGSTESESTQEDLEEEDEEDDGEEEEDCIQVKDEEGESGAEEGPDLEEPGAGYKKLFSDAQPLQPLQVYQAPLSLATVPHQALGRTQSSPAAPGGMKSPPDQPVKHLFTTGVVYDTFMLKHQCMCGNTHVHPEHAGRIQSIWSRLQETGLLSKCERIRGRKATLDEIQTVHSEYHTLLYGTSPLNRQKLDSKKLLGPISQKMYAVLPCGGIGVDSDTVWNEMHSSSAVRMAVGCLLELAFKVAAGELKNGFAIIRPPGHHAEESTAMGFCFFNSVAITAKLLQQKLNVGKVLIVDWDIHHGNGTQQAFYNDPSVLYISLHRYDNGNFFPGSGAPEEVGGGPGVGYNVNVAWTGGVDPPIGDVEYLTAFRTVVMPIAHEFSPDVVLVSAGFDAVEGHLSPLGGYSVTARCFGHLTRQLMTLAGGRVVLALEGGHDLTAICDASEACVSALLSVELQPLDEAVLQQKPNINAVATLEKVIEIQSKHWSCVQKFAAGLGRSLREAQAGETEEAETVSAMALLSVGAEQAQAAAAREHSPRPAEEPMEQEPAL
Chain of Histone deacetylase 8 (Q9BY41 whole entry): as the sequence (Q9BY41 whole entry, looked up) above
Chain of Histone deacetylase 2 (Q92769 whole entry): as the sequence (Q92769 whole entry, looked up) above

One may read the pIC50 as the IC50 on a negative log10 scale, so that one unit is a factor of ten. A higher pIC50 goes with a small IC50. In general, half-life refers to the time needed for the level to fall by half in the phase considered. The AUC(0-t) is exposure summed from dosing to a finite time, without extrapolation to infinity. One may read the AUC(0-inf) as total exposure, with the tail of the curve extrapolated. By Cmax is commonly meant the maximum level reached in the sampled fluid or tissue. In the case of `O=C(NO)c1ccc(CNC(=O)[C@H]2Cc3c([nH]c4ccccc34)[C@H](c3ccc(Cl)cc3)N2)cc1`, the pIC50 at Histone deacetylase 11 was 5.68; in series [1], 8.57; against Histone deacetylase 8, 6.53; against Histone deacetylase 5 it was below 4.30; against Histone deacetylase 4, below 4.30; in series [7], 6.30. The negative-log IC50 (pIC50) against Histone deacetylase 2 was 7.01. For the same compound, the half-life in series [2] is 3.38 h; in series [8], 3.41 h. Also, the inhibition result in series [3] is “Active”. The AUC(0-t) came out at 9.6 µM·h in series [4] and 1.46 µM·h in series [6]. The area under the curve AUC(0-inf) in [5] is 9.71 µM·h; in series [10], 1.52 µM·h. For the same compound, the Vd in series [9] is 0.81 L/kg. Moreover, the maximum concentration (Cmax) in [11] stood at 1390 nM.
